This note sets out measurements from publication PMC6906394, “Radiomodifying action, Pharmacokinetic and Biodistribution of Ethyl 3, 4, 5-trihydroxybenzoate-Implication in development of radiomitigator” (Scientific Reports, 2019).

The structures appear in SMILES notation. “Also recorded” adds a separate entry of the source. Like-named read-outs stand apart in the source and are kept apart here.

One data set concerns NF-kB. Put plainly: Immunofluorescent staining of NF-kB expression in liver and kidney sections. The note with it: R + GAE group, compared to irradiated group. In kind it is in vivo, mice. How it is done: (§1) Black C57BL/6 male mice weighing 28–30 g were maintained at the Institutional Animal Experimental Facility. Animals were fed according to standard chow diet having free access to food and water ad libitum. The environmental condition was maintained at room temperature (22 ± 2 °C), relative humidity (45–60%) and 12 h dark/light cycle controlled facility. In this study, mice were randomly assigned to four different groups (n = 21) i.e untreated control (UC), GAE-treated (GAE), Radiation + GAE (R + GAE), Radiation group (R). Mice fasted overnight with free access to water before being dosed. Isolated GAE from leaves was dissolved with distilled water and ethanol in (7:3 v/v) and administered orally at a dose of 200 mg/kg body weight to GAE-treated and R + GAE treated groups only. The experiment was carried out in accordance to regulation and guideline of the, Committee for the purpose of control and supervision of Experiments on animals (CPCSEA), and study was approved by Institutional Animal Experimental Committee (IAEC), Institute of Nuclear Medicine & Allied Science, Delhi, India.
Group I untreated control (UC), Group II GAE-treated (GAE), Group III Radiation + GAE (R + GAE) and Group IV Radiation (R) exposed. The GAE was administered orally 15 min post irradiation. […]

Data set [1] in a line: Biodistribution of GAE in liver, kidney, heart, spleen and brain after oral administration. In kind it is in vivo, mice. How it is done:
The Biodistribution in mice at 15 min, 30 min, 1 h, 2 h, 4 h, 8 h and 24 h after GAE administration are presented in (Fig. 2A,B). […] Moreover; no GAE peak was identified in untreated control and irradiated animals. In the GAE treated group the concentration of GAE is highest in the liver 3383.1 ± 137.79 ng/g at 1 h, 529.13 ± 102.8 ng/g in the kidney at 2 h and 283.1 ± 20.60 ng/g in the brain at 1 h after GAE administration. […] After 2 h of GAE administration its concentration decreased GAE was found in heart, spleen, and kidney up to 4 h, whereas in brain it found in low concentration up to 2 h.
as §1
Group I untreated control (UC), Group II GAE-treated (GAE), Group III Radiation + GAE (R + GAE) and Group IV Radiation (R) exposed. The GAE was administered orally 15 min post irradiation. The whole-body radiation (5 Gy) was carried out using Bhabahtron II, Telecobalt machine, Panacea medical technology, Bangalore. The mice exposed at a dose rate of 0.961 Gy/min at field 35 × 35 cm^2 and the distance maintained from the source was 80 cm.
Blood and tissues samples of mice were collected at 15 min, 30 min, 1 h, 2 h, 4 h, 8 h and 24 h after GAE administration (3mice per time). Blood was obtained from retro orbital plexus of mice and collected in heparinized eppendorf tubes, followed by centrifugation at 2500 g for 15 min. The resulting plasma layer was separated and stored in tubes at −20 °C for further analysis. Tissue samples (brain, heart, liver, kidney, and spleen) were weighed and put into the normal saline solution to remove the blood by blotting on filter paper and were minced and homogenized with physiological saline solution (1:2 w/v) thoroughly in an ice bath. The homogenates were stored at −80 °C until the analysis.
For the extraction from tissue, each aliquot (300 µL) of homogenate (liver, kidney, brain, heart & spleen) was spiked with 20 µL of the IS working solution (100 ng/mL) during analysis; homogenate was dispensed in a standing vial containing 400 µL ACN to precipitate proteins. The biological samples were swirled for 3 min and were centrifuged at 12000 rpm for 10 min at 4 °C. The obtained supernatant was tubed and dried under a stream of nitrogen at 40 °C, the sample was reconstituted with mobile phase, then and 20 µL was injected into the HPLC system.
GAE was separated on the high-performance liquid chromatography (HPLC), SPD-10A consisting of binary HPLC pump, ultraviolet detector, and a Rheodyne manual injector equipped with a 20 µl loop (Shimadzu, Japan). Separation was achieved on Kinetex Biphenyl RP 100 Å column (2.6 µm, 150 × 4.6 mm) (Phenomenex, Torrance) installed with phenyl cartridges (Phenomenex, Torrance). The system was controlled using class VP software (Shimadzu, Japan). […]

Setting [2] is: R + GAE treated group (5 Gy), 200 mg/kg b.wt oral.
[3] abbreviates: after GAE administration, 200 mg/kg b.wt oral.

For `CCOC(=O)c1cc(O)c(O)c(O)c1` [GAE, Ethyl 3,4,5-trihydroxybenzoate], the “NF-kB positive fluorescence expression” value in the data set on NF-kB is reported as “not strong; also recorded: not positive”. Also, the “crossing of the blood-brain barrier” value in data set [1] (GAE detected in brain in both GAE and R + GAE treated groups) is “crosses the blood-brain barrier; also recorded: could cross the blood-brain barrier”. Also, in data set [1] (setting [2]), the “concentration of GAE (liver, tissue implied by context)” value turned out to be 1928.5 ± 39.63 ng/g. The “kidney concentration of GAE” value in data set [1] (setting [2]) is listed as 307.77 ± 7.80 ng/g. Also, in data set [1] (setting [3]), the “time up to which GAE was found in brain (low concentration)” value is listed as “up to 2 h”. Besides, the “time up to which GAE was found in heart, spleen and kidney” value in data set [1] (setting [3]) is “up to 4 h”. For the same compound, in data set [1] (biodistribution, 200 mg/kg b.wt oral), the “tissues with the highest concentration” value is “liver and kidney”. Moreover, the “peak GAE concentration in liver relative to other tissues” value in data set [1] (both GAE treated and R + GAE treated groups) is given as “two fold higher”. Further, the concentration at 1 h is 283 ± 20.6 ng/g in data set [1] (male, C57BL/6, mouse, brain, po, 200 mg/kg, GAE treated group, 200 mg/kg b.wt oral, read-out: concentration of GAE in the brain); 216 ng/g in data set [1] (male, C57BL/6, mouse, heart, po, 200 mg/kg, GAE treated animals, 200 mg/kg b.wt oral, read-out: GAE concentration in the heart); 506 ± 39.4 ng/g in data set [1] (male, C57BL/6, mouse, heart, po, 200 mg/kg, R + GAE group (5 Gy), 200 mg/kg b.wt oral, read-out: GAE concentration in the heart); 3380 ± 138 ng/g in data set [1] (male, C57BL/6, mouse, liver, po, 200 mg/kg, GAE treated group, 200 mg/kg b.wt oral, read-out: concentration of GAE in the liver); 484 ng/g in data set [1] (male, C57BL/6, mouse, spleen, po, 200 mg/kg, GAE treated animals, 200 mg/kg b.wt oral, read-out: GAE concentration in the spleen); 522 ± 73.2 ng/g in data set [1] (male, C57BL/6, mouse, spleen, po, 200 mg/kg, R + GAE group (5 Gy), 200 mg/kg b.wt oral, read-out: GAE concentration in the spleen). In data set [1] (male, C57BL/6, mouse, kidney, po, 200 mg/kg, GAE treated group, 2 h, 200 mg/kg b.wt oral), this compound gave a concentration at 2 h of 529 ± 103 ng/g.
